Reference: article PMC6438538, “Targeting ferroptosis: A novel therapeutic strategy for the treatment of mitochondrial disease-related epilepsy” (PLoS ONE, 2019)

Target: T1, 15-lipoxygenase-1 (15-LO) (Homo sapiens, UniProt P16050)
T1 construct: gene ALOX15; 6xHis-tagged human 15-LO
T1 sequence (P16050 2-662): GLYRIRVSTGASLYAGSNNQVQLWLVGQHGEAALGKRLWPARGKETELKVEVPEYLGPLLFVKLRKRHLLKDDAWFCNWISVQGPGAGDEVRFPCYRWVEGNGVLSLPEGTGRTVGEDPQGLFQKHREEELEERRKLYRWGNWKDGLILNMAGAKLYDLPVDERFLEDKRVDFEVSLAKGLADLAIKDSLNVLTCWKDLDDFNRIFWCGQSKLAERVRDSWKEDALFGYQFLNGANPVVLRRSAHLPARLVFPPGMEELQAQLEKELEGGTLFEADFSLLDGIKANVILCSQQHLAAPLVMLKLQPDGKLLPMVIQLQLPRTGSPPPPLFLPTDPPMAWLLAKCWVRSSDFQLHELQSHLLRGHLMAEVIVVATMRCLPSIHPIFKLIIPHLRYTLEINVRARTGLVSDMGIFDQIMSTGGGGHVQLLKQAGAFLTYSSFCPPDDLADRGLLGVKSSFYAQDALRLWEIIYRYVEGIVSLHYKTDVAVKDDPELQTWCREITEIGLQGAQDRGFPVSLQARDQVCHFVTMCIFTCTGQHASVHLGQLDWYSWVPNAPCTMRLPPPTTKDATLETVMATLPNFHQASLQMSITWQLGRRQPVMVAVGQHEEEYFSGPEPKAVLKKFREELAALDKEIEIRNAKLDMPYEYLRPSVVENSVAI
Assay: ferrous oxidation-xylenol orange (FOX) assay with purified human 15-LO and arachidonic acid
Type: biochemical

IC50: 4.4 µM
SMILES: CC(C)=CCC/C(C)=C/CC/C(C)=C/CC[C@@](C)(O)CCc1c(C)c(O)c(C)c(C)c1O [EPI-743-HQ, EPI-743 hydroquinone]
